We go through four compounds from PMC11372839, “Unraveling the Potential of Vitamin B3-Derived Salts with a Salicylate Anion as Dermal Active Agents for Acne Treatment” (Molecular Pharmaceutics, 2024).

Common to all, as to type: cell-based
The subject of experiment [1] is Cutibacterium acnes. Nature of the experiment: MIC and MBC determination, microdilution method. The conditions noted are these: Cutibacterium acnes; for MIC: 48 h, read-out: MIC, C. acnes; for MBC: read-out: MBC, C. acnes. The procedure:
(§1) The antimicrobial activities of the compounds were tested against clinical strains of an aerobic Gram-negative bacterium—Pseudomonas aeruginosa (P. aeruginosa), facultative anaerobic Gram-positive bacteria—Staphylococcus aureus (S. aureus) and Staphylococcus epidermidis (S. epidermidis), anaerobic Gram-positive bacterium—Cutibacterium acnes (C. acnes), and yeast-like fungus—Candida albicans (C. albicans).
(§2) Aerobic and facultative anaerobic bacteria cultures were grown in Brain Heart Infusion broth (BHI, bioMerieux, France) at 35 °C ± 1 °C for 18 h, C. acnes cultures were grown in thioglycolate broth with resazurin (TGB, bioMerieux, France) at 35 ± 1 °C for 48 h, and yeast cultures were grown in Sabouraud dextrose broth (SDB, Merck, Germany) at 35 ± 1 °C for 24 h. After incubation, each culture was diluted in a suitable liquid medium: P. aeruginosa, S. aureus, and S. epidermidis—Mueller–Hinton broth (MHB; Oxoid, UK); C. acnes—TGB; and C. albicans—SDB, to obtain a final suspension containing about 10^6 CFU/mL.
(§3) The microdilution method was employed to determine the compounds’ MIC (Minimal Inhibitory Concentration) and MBC/MFC (Minimal Bactericidal Concentration/Minimal Fungicidal Concentration) against the tested bacterial and fungal strains.
(§4) The compounds were serially diluted (2-fold) in the respective media (P. aeruginosa, S. aureus, and S. epidermidis—MHB, C. acnes—TGB, and C. albicans—SDB in 96-well plates), and the microbial suspensions were added. The compounds were tested in the final concentration range of 4 096 to 0.125 μg/mL, and the final microbial inoculum was approximately 5 ×10^5 CFU/mL. The tests were incubated at 35 °C ± 1 °C for 18 h (P. aeruginosa, S. aureus, and S. epidermidis) or 24 h (C. albicans) or 48 h (C. acnes). C. acnes was incubated in an anaerobic atmosphere using a GENbag anaer (bioMerieux, France). Media (without the strains) added to the different concentrations of tested compounds and media inoculated with microbial suspension were used as a negative control and growth control, respectively.
(§5) The MIC was defined as the lowest concentration at which visible growth was inhibited. MBC and MFC concentrations were determined as an extension of the MIC test. […] The plates were incubated at 35 ± 1 °C for 18–72 h. C. acnes was incubated in an anaerobic atmosphere. The MBC/MFC was defined as the lowest concentration at which no growth was observed. All tests were performed in duplicate.
A general note: Broth dilution looks for growth in wells or tubes with falling amounts of substance.

The test system of experiment [2] is Pseudomonas aeruginosa. Nature of the experiment: MIC and MBC determination, microdilution method. The note with it: for MIC: 18 h, read-out: MIC, P. aeruginosa. Here is the method:
as §1, §2, §3, §4, §5

For experiment [3], the system named is Staphylococcus aureus. Put plainly: MIC and MBC determination, microdilution method. The note with it: for MIC: 18 h, read-out: MIC, S. aureus; for MBC: read-out: MBC, S. aureus. Here is the method:
as §1, §2, §3, §4, §5

The subject of experiment [4] is Staphylococcus epidermidis. Put plainly: MIC and MBC determination, microdilution method. The note with it: for MIC: 18 h, read-out: MIC, S. epidermidis; for MBC: read-out: MBC, S. epidermidis. Here is the method: as §1, §2, §3, §4, §5
The subject of experiment [5] is Candida albicans. Put plainly: MIC and MFC determination, microdilution method. The note with it: clinical strain, tested 4 096 to 0.125 μg/mL, b = out of range. The procedure:
as §1, §2, §3, §4, §5

Setting [6] is: clinical strain, anaerobic, tested 4 096 to 0.125 μg/mL, b = out of range.
Setting [7] is: clinical strain, tested 4 096 to 0.125 μg/mL, b = out of range.

In brackets after ≈: the same amount, converted by molar mass. Read-outs that look alike come from different tables or passages of the source.

Take `O=C(O)c1ccccc1O` [SAL, salicylic acid, reference compound]: the MIC was found to be 1020 µg/mL (≈ 7.41 mM) in experiment [1] (setting [6]); 2050 µg/mL (≈ 14.8 mM) in experiment [2] (setting [7]); 1020 µg/mL (≈ 7.41 mM) in experiment [3] (setting [7]); 1020 µg/mL (≈ 7.41 mM) in experiment [4] (setting [7]); 2050 µg/mL (≈ 14.8 mM) in experiment [5] (24 h, read-out: MIC, C. albicans). Further, the MBC stood at 4100 µg/mL (≈ 29.7 mM) in experiment [1] (setting [6]); 4100 µg/mL (≈ 29.7 mM) in experiment [2] (clinical strain, tested 4 096 to 0.125 μg/mL, b = out of range, read-out: MBC, P. aeruginosa); 1020 µg/mL (≈ 7.41 mM) in experiment [3] (setting [7]); 1020 µg/mL (≈ 7.41 mM) in experiment [4] (setting [7]). The MFC in experiment [5] (read-out: MFC, C. albicans) stood at 2050 µg/mL (≈ 14.8 mM).
Consider `CCCCCC[n+]1cccc(C(N)=O)c1.O=C([O-])c1ccccc1O` [compound 3], for which the MIC in experiment [3] turned out to be 2050 µg/mL; in experiment [4] it was 4100 µg/mL.
`CCCCCCCC[n+]1cccc(C(N)=O)c1.O=C([O-])c1ccccc1O` [compound 4]: the MIC in experiment [3] turned out to be 1020 µg/mL; in experiment [4], 2050 µg/mL.
For `CCCCCCCCCC[n+]1cccc(C(N)=O)c1.O=C([O-])c1ccccc1O` [compound 5], the MIC in experiment [1] came out at 1020 µg/mL; in experiment [2], 1020 µg/mL; in experiment [3], 256 µg/mL; in experiment [4], 256 µg/mL. In addition, the MBC in experiment [1] was determined as 1020 µg/mL; in experiment [3], 256 µg/mL; in experiment [4], 256 µg/mL.

Usually MIC stands for the smallest concentration in the dilution series that meets the test's criterion for growth inhibition. The MBC is the lowest tested concentration that kills the bacteria rather than only halting them. By MFC is commonly meant the lowest tested concentration that kills the fungus rather than only halting it.
